According to patent US20040247674A1, “Drug delivery system” (priority 2001, published 2004):

Assay: release rates of active agents from core-membrane implants
Assay type: physicochemical
Details: for release rate over time: Example 4 implant (FIG. 12): membrane PDMS/trifluoropropyl modified PDMS, fluoro-content 55 wt-%, thickness 0.25 mm
From the text: The implant structure was as disclosed in FIG. 2. The first part of the core consisted of PDMS comprising levonorgestrel and the length was 35 mm. The second part of the core consisted of PEO-PDMS having 50% of PEO, comprising estradiol, and the length was 8 mm.
The core parts were encased in a membrane consisting of PEO-PDMS in a ratio of 10:90. The thickness of the membrane was 0.2 mm and the outer diameter of the implant 2.48 mm.
The implant structure was as disclosed in FIG. 2. The first part of the core consisted of PEO-PDMS in a ratio of 50:50 comprising compound 1 and the length was 34 mm. The second part of the core consisted of PEO-PDMS having 50% of PEO, comprising estradiol, and the length was 6 mm.
The core parts were encased in a membrane consisting of PEO-PDMS in a ratio of 20:80. The thickness of the membrane was 0.2 mm and the outer diameter of the implant 2.48 mm.
The implant structure was as disclosed in FIG. 2. The first part of the core consisted of Pt-catalysed PDMS comprising 60 weight-% MENT having a length of 44 mm and a diameter of 3.0 mm. The second part of the core consisted of peroxide-catalysed PDMS comprising 50 weight-% gestodene having a length of 12 mm and a diameter of 3.0 mm.
Both core parts were encapsulated by a membrane consisting of a mixture of PDMS and trifluoropropyl modified PDMS. The fluoro-content in the membrane varied from 55 weight-% to 75 weight-%. The thickness of the membrane was 0.25 or 0.35 mm and thus the outer diameter of the implant 3.5 or 3.7 mm, respectively.
MENT is represented by the trinagles and gestodene by the lozenges.

SMILES	release rate over time	release rate of gestodene, membrane thickness 0.25 mm compared with 0.35 mm (Example 4 implant (FIG. 14): membrane fluoro-content 60 wt-%)	release rate of compound 1 versus target (Example 2 implant (FIG. 10): PEO-PDMS 50:50 core part 34 mm, membrane PEO-PDMS 20:80, 0.2 mm, target 50 μg/day)
C#C[C@]1(O)C=C[C@H]2[C@@H]3CCC4=CC(=O)CC[C@@H]4[C@H]3CC[C@@]21CC [gestodene]	essentially constant over time	higher	–
C[C@@H]1CC2=CC(=O)CC[C@@H]2[C@H]2CC[C@]3(C)[C@@H](O)CC[C@H]3[C@@H]21 [MENT, 7-α-methyl-19-nortestosterone]	essentially constant over time	–	–
CC(=O)c1ccc(C2C[C@@]3(C)[C@@H](CCC3(O)C(F)(F)C(F)(F)F)[C@@H]3CCC4=CC(=O)CCC4=C23)cc1 (stereo partly shown) [compound 1, 11-(4-Acetylphenyl)-17-hydroxy-17-(1,1,2,2,2-pentafluoroethyl)estra-4,9-dien-3-one]	–	–	target release rates were obtained
